# Measured values published in PubChem BioAssay AID2060491 (Molecular Pharmacology Branch, DTP, NCI, 2025).
# System: 857933-349-R-J2-PDC complex spheroids, viability
# Assay: Anticancer human tumor 857933-349-R-J2-PDC patient-derived colon adenocarcinoma cell line growth inhibition [GQUAD]
# Conditions: for IC50: curve of first compound; for viability, T/C: stronger effect = lower value
# In short: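 Viability of tumor cells grown as complex spheroids with endothelial and stromal cells, exposed to drug combinations. Top concentration at or near clinical Cmax (else 10 microM), diluted in half-log increments.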
# [1] = second compound 0.0316 µM, first compound 0.0316 µM
# [2] = second compound 0.0316 µM, first compound 0.1 µM
# [3] = second compound 0.0316 µM, first compound 0.316 µM
# [4] = second compound 0.0316 µM, first compound 1 µM
# [5] = second compound 0.0316 µM, first compound 3.16 µM
# [6] = second compound 0.0316 µM, first compound 10 µM
# [7] = second compound 0.1 µM, first compound 0.0316 µM
# [8] = second compound 0.1 µM, first compound 0.1 µM
# [9] = second compound 0.1 µM, first compound 0.316 µM
# [10] = second compound 0.1 µM, first compound 1 µM
# [11] = second compound 0.1 µM, first compound 3.16 µM
# [12] = second compound 0.1 µM, first compound 10 µM
# [13] = second compound 0.316 µM, first compound 0.0316 µM
# [14] = second compound 0.316 µM, first compound 0.1 µM
# [15] = second compound 0.316 µM, first compound 0.316 µM
# [16] = second compound 0.316 µM, first compound 1 µM
# [17] = second compound 0.316 µM, first compound 3.16 µM
# [18] = second compound 0.316 µM, first compound 10 µM
# [19] = second compound 1 µM, first compound 0.0316 µM
# [20] = second compound 1 µM, first compound 0.1 µM
# [21] = second compound 1 µM, first compound 0.316 µM
# [22] = second compound 1 µM, first compound 1 µM
# [23] = second compound 1 µM, first compound 3.16 µM
# [24] = second compound 1 µM, first compound 10 µM
# [25] = second compound 3.16 µM, first compound 0.0316 µM
# [26] = second compound 3.16 µM, first compound 0.1 µM
# [27] = second compound 3.16 µM, first compound 0.316 µM
# [28] = second compound 3.16 µM, first compound 1 µM
# [29] = second compound 3.16 µM, first compound 3.16 µM
# [30] = second compound 3.16 µM, first compound 10 µM
# [31] = second compound 10 µM, first compound 0.0316 µM
# [32] = second compound 10 µM, first compound 0.1 µM
# [33] = second compound 10 µM, first compound 0.316 µM
# [34] = second compound 10 µM, first compound 1 µM
# [35] = second compound 10 µM, first compound 3.16 µM
# [36] = second compound 10 µM, first compound 10 µM
# 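Also: spheroids exposed to compounds for one week before readout.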
# 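For viability, T/C in this document: percent viability relative to vehicle DMSO wells taken as 100%.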
structure (smiles),measurement,setting,value
CC1COCCN1c1cc(-c2ccnn2C)c2ccnc(-c3ccn[nH]3)c2n1 (centres undefined) + CN(C)c1ccc(Nc2c3ccc(NC(=O)CCN4CCCC4)cc3nc3cc(NC(=O)CCN4CCCC4)ccc23)cc1,IC50,second compound 0.0316 µM,> 10 µM
same,IC50,second compound 0.1 µM,> 10 µM
same,IC50,second compound 0.316 µM,> 10 µM
same,IC50,second compound 1 µM,> 10 µM
same,IC50,second compound 3.16 µM,> 10 µM
same,IC50,second compound 10 µM,2.95 µM
same,"viability, T/C",[1],98.3%
same,"viability, T/C",[2],80.7%
same,"viability, T/C",[3],78%
same,"viability, T/C",[4],60.8%
same,"viability, T/C",[5],56.2%
same,"viability, T/C",[6],62.5%
same,"viability, T/C",[7],96.1%
same,"viability, T/C",[8],82.5%
same,"viability, T/C",[9],73.5%
same,"viability, T/C",[10],58.3%
same,"viability, T/C",[11],54.3%
same,"viability, T/C",[12],69.7%
same,"viability, T/C",[13],90.8%
same,"viability, T/C",[14],80.8%
same,"viability, T/C",[15],74.7%
same,"viability, T/C",[16],59.4%
same,"viability, T/C",[17],58.6%
same,"viability, T/C",[18],63.1%
same,"viability, T/C",[19],93.5%
same,"viability, T/C",[20],73.4%
same,"viability, T/C",[21],73.8%
same,"viability, T/C",[22],55.9%
same,"viability, T/C",[23],58.4%
same,"viability, T/C",[24],54.3%
same,"viability, T/C",[25],85.9%
same,"viability, T/C",[26],71.8%
same,"viability, T/C",[27],66.1%
same,"viability, T/C",[28],53.1%
same,"viability, T/C",[29],58.9%
same,"viability, T/C",[30],52.4%
same,"viability, T/C",[31],75.8%
same,"viability, T/C",[32],70.8%
same,"viability, T/C",[33],61.9%
same,"viability, T/C",[34],55.2%
same,"viability, T/C",[35],49.6%
same,"viability, T/C",[36],44.6%
O=C(NO)c1cnc(N2CCN(S(=O)(=O)c3ccc4ccccc4c3)CC2)nc1 + CN(C)c1ccc(Nc2c3ccc(NC(=O)CCN4CCCC4)cc3nc3cc(NC(=O)CCN4CCCC4)ccc23)cc1,IC50,second compound 0.0316 µM,1.48 µM
same,IC50,second compound 0.1 µM,1.51 µM
same,IC50,second compound 0.316 µM,1.31 µM
same,IC50,second compound 1 µM,1.23 µM
same,IC50,second compound 3.16 µM,1.13 µM
same,IC50,second compound 10 µM,0.658 µM
same,"viability, T/C",[1],106%
same,"viability, T/C",[2],100%
same,"viability, T/C",[3],101%
same,"viability, T/C",[4],75.1%
same,"viability, T/C",[5],0.74%
same,"viability, T/C",[6],0.27%
same,"viability, T/C",[7],101%
same,"viability, T/C",[8],99.3%
same,"viability, T/C",[9],93.8%
same,"viability, T/C",[10],77.1%
same,"viability, T/C",[11],0.65%
same,"viability, T/C",[12],0.57%
same,"viability, T/C",[13],101%
same,"viability, T/C",[14],100%
same,"viability, T/C",[15],93%
same,"viability, T/C",[16],64.9%
same,"viability, T/C",[17],1.11%
same,"viability, T/C",[18],0.38%
same,"viability, T/C",[19],97.2%
same,"viability, T/C",[20],97%
same,"viability, T/C",[21],92.9%
same,"viability, T/C",[22],60.7%
same,"viability, T/C",[23],0.83%
same,"viability, T/C",[24],0.36%
same,"viability, T/C",[25],89%
same,"viability, T/C",[26],80.1%
same,"viability, T/C",[27],92.4%
same,"viability, T/C",[28],55.7%
same,"viability, T/C",[29],1%
same,"viability, T/C",[30],0.3%
same,"viability, T/C",[31],66.2%
same,"viability, T/C",[32],68.2%
same,"viability, T/C",[33],68.5%
same,"viability, T/C",[34],40%
same,"viability, T/C",[35],0.55%
same,"viability, T/C",[36],0.71%
